Structures can show the parent of a compound that is named as a salt. Where two headings read alike, the source gives them in different places.
Columns and labels:
A431 tumours = settings: A431 xenograft, q3dx4, intraperitoneal; for Drug related deaths: lactate buffer pH 4; for TGD (Tumour Growth Delay): % increase in time to RTV4 relative to control; for Weight Loss Nadir (%): mean nadir relative to day 0 weight
erbB1 (EGFR) = erbB1 (EGFR) (Homo sapiens, UniProt P00533); test: Inhibition of erbB1 autophosphorylation in EGF-stimulated intact A431 cells (Western immunoblotting); format: cell-based; settings: 1 hour treatment, phospho-EGFR (Tyr 1068), β-actin corrected
Procedure: (§1) A431 cells were seeded into 6 well plates (with αMEM+5% FCS). The following day, plates were washed once with serum-free medium and grown for 18 hours in serum-free medium (αMEM) before being exposed to a range of inhibitor or prodrug concentrations for 1 hour and then stimulated for 15 minutes with 100 ng/ml epidermal growth factor (EGF receptor ligand). Next cells were washed with ice cold PBS and lysed in modified RIPA buffer on ice (30 min). Lysates were vortexed and clarify by spinning before protein concentrations of samples was determined by BCA assay. […] All antibodies were diluted in 2% BSA TBS-Tween 0.1%. To detect phospho-EGFR (Tyr 1068) the monoclonal antibody (1:500; Cell Signalling #2234) was incubated overnight at 4° C. and binding was detected with goat-anti-Rabbit-IgG-HRP conjugated secondary antibody (1:5000; Santa Cruz #SC2054; 3 h RT). To detect downstream phospho-p44/42 MAPK(Erk 1/2) (Thr202/Tyr 204) the monoclonal antibody (Cell Signalling #4370) was used at a 1:500 dilution. The blot was then treated with Goat anti-rabbit IgG-HRP conjugated secondary antibody (Santa Cruz Biotechnology, Inc. sc-2054) for three hours at a ratio of 1:5000. To normalise for any inaccuracy in gel loading, each blot was probed with anti-β-actin antibody (Abacus ALS #MAB-1501R, 1:2000 dilution). The following day, the blot was treated with Goat anti-mouse IgG-HRP conjugated secondary antibody (Santa Cruz Biotechnology, Inc. sc-2055) for one hour at a 1:5000 ratio. Protein bands were visualized using Amersham ECL Plus Western Blotting Detection Reagent (GE Healthcare RPN2132). Densitometry was determined using Image J software. Values normalized to β-actin were plotted on SigmaPlot 11.0.

p44/42 MAPK (Erk1/2) = test: Inhibition of p44/42 MAPK (Erk1/2) phosphorylation in EGF-stimulated intact A431 cells (Western immunoblotting); format: cell-based, human; settings: for downstream p44/42 MAPK(Erk 1/2) phosphorylation (Thr202/Tyr 204), result in words: 1 hour treatment
Procedure: as §1

SKOV3 cells = test: Inhibition of cellular proliferation (sulforhodamine B staining); settings: for SKOV3 HCR (Hypoxic Cytotoxicity Ratio): fold change in intra-experimental IC50, 4 hours anoxia relative to oxic only
A431 cells = test: as above
H1975 cells = test: as above; settings: for H1975 HCR (Hypoxic Cytotoxicity Ratio): fold change in intra-experimental IC50, 4 hours anoxia relative to oxic only
H1975 tumours = settings: for Drug related deaths / Weight Loss Nadir (%): H1975 xenograft, q3dx4, intraperitoneal; for Drug related deaths: lactate buffer pH 4; for Weight Loss Nadir (%): mean nadir relative to day 0 weight
[1] = pulse radiolysis, determined against methylviologen
[2] = Fragmentation rate constant of 1-electron reduced prodrugs by pulse radiolysis; format: physicochemical; settings: formation of benzyl-type radicals absorbing in the 360-390 nm region
From the text: The rate constants for fragmentation, kfrag, of the 1-electron reduced prodrugs can be measured using pulse radiolysis to observe the time-resolved formation of the absorption spectrum of the benzyl-type radical produced upon fragmentation of the radical anion.

[3] = read-out: Cellular Growth Inhibition IC50 SKOV3 Anoxic, initial 4 hours of the 24 hour exposure under anoxic conditions
[4] = read-out: Cellular Growth Inhibition IC50 SKOV3 Oxic, 24 hour exposure entirely under oxic conditions, washed, further 4 days
[5] = read-out: Cellular Growth Inhibition IC50 A431 Anoxic, initial 4 hours of the 24 hour exposure under anoxic conditions
[6] = read-out: Cellular Growth Inhibition IC50 A431 Oxic, 24 hour exposure entirely under oxic conditions, washed, further 4 days
[7] = read-out: Cellular Growth Inhibition IC50 H1975 Anoxic, initial 4 hours of the 24 hour exposure under anoxic conditions
[8] = read-out: Cellular Growth Inhibition IC50 H1975 Oxic, 24 hour exposure entirely under oxic conditions, washed, further 4 days

erbB1 (EGFR), sequence (P00533 25-1210): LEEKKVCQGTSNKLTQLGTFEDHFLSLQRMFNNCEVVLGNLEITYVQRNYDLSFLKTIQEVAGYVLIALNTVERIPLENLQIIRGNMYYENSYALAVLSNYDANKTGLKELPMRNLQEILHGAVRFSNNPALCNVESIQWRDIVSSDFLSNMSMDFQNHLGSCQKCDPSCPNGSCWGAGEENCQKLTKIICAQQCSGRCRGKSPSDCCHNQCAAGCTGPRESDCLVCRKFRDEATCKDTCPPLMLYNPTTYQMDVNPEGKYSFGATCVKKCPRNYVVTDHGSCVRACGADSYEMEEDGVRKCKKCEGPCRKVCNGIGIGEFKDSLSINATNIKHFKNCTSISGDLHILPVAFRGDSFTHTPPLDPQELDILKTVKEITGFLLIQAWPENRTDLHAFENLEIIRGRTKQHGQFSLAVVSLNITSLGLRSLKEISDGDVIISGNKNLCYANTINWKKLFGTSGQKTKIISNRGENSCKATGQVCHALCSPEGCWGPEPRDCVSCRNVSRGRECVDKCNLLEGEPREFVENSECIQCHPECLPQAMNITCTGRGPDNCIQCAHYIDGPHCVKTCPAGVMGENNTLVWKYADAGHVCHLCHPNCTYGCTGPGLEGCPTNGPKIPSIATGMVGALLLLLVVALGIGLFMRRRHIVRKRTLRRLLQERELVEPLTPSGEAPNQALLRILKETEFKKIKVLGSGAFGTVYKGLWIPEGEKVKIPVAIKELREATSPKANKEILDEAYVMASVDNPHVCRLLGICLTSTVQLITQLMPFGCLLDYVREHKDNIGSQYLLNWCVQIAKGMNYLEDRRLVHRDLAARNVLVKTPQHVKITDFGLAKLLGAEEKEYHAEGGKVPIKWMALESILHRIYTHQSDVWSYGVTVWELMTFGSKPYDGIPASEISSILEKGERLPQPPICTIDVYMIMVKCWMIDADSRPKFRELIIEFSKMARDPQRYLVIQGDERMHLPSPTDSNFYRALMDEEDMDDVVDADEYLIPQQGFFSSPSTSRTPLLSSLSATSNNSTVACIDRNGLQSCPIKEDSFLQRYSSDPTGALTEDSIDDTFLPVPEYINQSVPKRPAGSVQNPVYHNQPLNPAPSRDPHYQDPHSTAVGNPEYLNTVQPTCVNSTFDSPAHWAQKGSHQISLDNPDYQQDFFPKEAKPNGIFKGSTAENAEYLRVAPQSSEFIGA

SMILES | Drug related deaths (A431 tumours) | TGD (Tumour Growth Delay) (A431 tumours) [%] | Weight Loss Nadir (%) (A431 tumours) | IC50 (erbB1 (EGFR)) [µM] | downstream p44/42 MAPK(Erk 1/2) phosphorylation (Thr202/Tyr 204), result in words (p44/42 MAPK (Erk1/2)) | SKOV3 HCR (Hypoxic Cytotoxicity Ratio) (SKOV3 cells) | IC50 (SKOV3 cells; [3]) [µM] | IC50 (SKOV3 cells; [4]) [µM] | IC50 (A431 cells; [5]) [µM] | IC50 (A431 cells; [6]) [µM] | H1975 HCR (Hypoxic Cytotoxicity Ratio) (H1975 cells) | IC50 (H1975 cells; [7]) [µM] | IC50 (H1975 cells; [8]) [µM] | Drug related deaths (H1975 tumours) | Weight Loss Nadir (%) (H1975 tumours) | E(1)/V 1-electron reduction potential [1] [V] | kfrag./s^−1 rate constant for fragmentation [2] [s⁻¹] | further results
CN(C)C/C=C/C(=O)Nc1cc2c(Nc3ccc(Br)c(Cl)c3)ncnc2cn1 [Compound 6, (2E)-N-[4-(4-bromo-3-chloroanilino)pyrido[3,4-d]pyrimidin-6-yl]-4-(dimethylamino)-2-butenamide] | 0 | >250 | −1.5 ± 0.8 | 0.025 | coordinate loss | 0.7 | 0.55 | 0.2 | 0.005 | 0.005 | 0.7 | 0.22 | 0.15 |  |  |  |  | 
Cn1cnc([N+](=O)[O-])c1C[N+](C)(C)C/C=C/C(=O)Nc1cc2c(Nc3ccc4c(cnn4Cc4cccc(F)c4)c3)ncnc2cn1 [Compound 13, (2E)-4-[(4-{[1-(3-fluorobenzyl)-1H-indazol-5-yl]amino}pyrido[3,4-d]pyrimidin-6-yl)amino]N,N-dimethyl-N-[(1-methyl-4-nitro-1H-imidazol-5-yl)methyl]-4-oxo-2-buten-1-ammonium bromide] |  |  |  |  |  |  | 1.6 | 315 | 0.24 | 6.2 |  | 3.3 | 92 | 0 | −4.1 ± 2.5 | −0.417 | 60 ± 10 | 
CN(C)C/C=C/C(=O)Nc1cc2c(Nc3ccc(Cl)c(Br)c3)ncnc2cn1 [Compound 5, (2E)-N-[4-(3-bromo-4-chloroanilino)pyrido[3,4-d]pyrimidin-6-yl]-4-(dimethylamino)-2-butenamide] | 0 | >250 | −6.3 ± 4.5 | 0.0395 | coordinate loss | 0.9 | 0.45 | 0.3 | 0.01 | 0.009 | 0.9 | 0.5 | 0.29 | 1 | −8.5 ± 0.6 |  |  | A431 HCR (Hypoxic Cytotoxicity Ratio) (A431 cells; fold change in intra-experimental IC50, 4 hours anoxia relative to oxic only): 1.0
Cn1cnc([N+](=O)[O-])c1C[N+](C)(C)C/C=C/C(=O)Nc1cc2c(Nc3ccc(OCc4ccccn4)c(Cl)c3)ncnc2cn1 [Compound 15, (2E)-4-({4-[3-chloro-4-(2-pyridinylmethoxy)anilino]pyrido[3,4-d]pyrimidin-6-yl}amino)-N,N-dimethyl-N-[(1-methyl-4-nitro-1H-imidazol-5-yl)methyl]-4-oxo-2-buten-1-ammonium bromide] |  |  |  | 5.29 |  |  | 0.6 | 159 | 0.3 | 10 |  | 0.43 | 26 | 0 | −9.4 ± 3.3 | −0.423 | 60 ± 10 | IC50 (p44/42 MAPK (Erk1/2); Homo sapiens, A-431, 1 hour treatment, read-out: IC50 p44/42 MAPK(Erk 1/2) phosphorylation (Thr202/Tyr 204)): 8.9 µM; growth delay of prodrug compared to its cognate kinase inhibitor, result in words (H1975 tumours; H1975 tumours, q3dx4): extended period of growth delay
Cc1nc([N+](=O)[O-])c(C[N+](C)(C)C/C=C/C(=O)Nc2cc3c(Nc4ccc5c(cnn5Cc5cccc(F)c5)c4)ncnc3cn2)n1C (as salt: bromide) [Compound 14, (2E)-N-[(1,2-dimethyl-4-nitro-1H-imidazol-5-yl)methyl]-4-[(4-{[1-(3-fluorobenzyl)-1H-indazol-5-yl]amino}pyrido[3,4-d]pyrimidin-6-yl)amino]-N,N-dimethyl-4-oxo-2-buten-1-ammonium bromide] |  |  |  |  |  |  |  |  |  |  |  |  |  |  |  |  |  | melting point: 188 to 192 °C (dec.)
Cn1cnc([N+](=O)[O-])c1C[N+](C)(C)C/C=C/C(=O)Nc1cc2c(Nc3ccc(Cl)c(Cl)c3)ncnc2cn1 [Compound 16, (2E)-4-{[4-(3,4-dichloroanilino)pyrido[3,4-d]pyrimidin-6-yl]amino}-N,N-dimethyl-N-[(1-methyl-4-nitro-1H-imidazol-5-yl)methyl]-4-oxo-2-buten-1-ammonium bromide] |  |  |  |  |  |  | 0.53 | 40 | 0.015 | 0.33 |  | 0.4 | 32 | 0 | −10.1 ± 0.7 | −0.418 | 60 ± 10 | 

Reference: patent publication US9101632B2, “Kinase inhibitors, prodrug forms thereof and their use in therapy” (AUCKLAND UNISERVICES LIMITED, priority 2009, dated 2015)
